Measured values published in patent US20250353873A1, “COMPOUNDS AND METHODS FOR MODULATING APOE EXPRESSION” (Ionis Pharmaceuticals, Inc., priority 2024, published 2025).
Strand notation (5' to 3'): a small letter for the sugar, then the base; units joined by * are phosphorothioate-linked, units joined directly phosphodiester-linked; [ ] holds rarer units or linkages, { } end groups; capitals alone tell only the bases. [ms] = mesyl phosphoramidate linkage; e = 2'-O-(2-methoxyethyl) (MOE); k = constrained ethyl (cEt); [5mC] = 5-methylcytosine; d = 2'-deoxy (DNA)

Key:
human APOE RNA [1] = assay: Activity in APOE C57BL/6NTac-Apoeem7250 knock-in mice, single ICV bolus, 8 weeks (Example 11); format: in vivo; conditions: for reduction of human APOE RNA in the cortex: APOE knock-in mouse model, 8 weeks post administration, assay of Example 11; for APOE RNA (% control) Cortex / APOE RNA (% control) Spinal Cord: single ICV bolus 300 μg, 8 weeks post treatment, normalized to mouse Ppia
Procedure, shortened: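 Human APOE knock-in C57BL/6NTac mice given one ICV bolus of 300 μg oligonucleotide; PBS-dosed group as control. At 8 weeks, cortex and spinal cord RNA measured by qRT-PCR (human probe RTS3073), normalized to mouse Ppia, expressed as % of PBS control.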

human APOE RNA [2] = assay: Dose-dependent inhibition of human APOE RNA in differentiated SH-SY5Y cells, free uptake, 5 days (Example 5); format: cell-based
Procedure: Modified oligonucleotides selected from the examples above were tested at various doses in differentiated SH-SY5Y cells. The modified oligonucleotides were tested in a series of experiments that had the same culture conditions.
Differentiated SH-SY5Y cells plated at a density of 10,000 cells per well were treated by free uptake with various concentrations of modified oligonucleotide as specified in the tables below. […] APOE RNA levels were measured using the human primer probe set RTS3073 (described herein above). APOE RNA levels were normalized to human PPIA. Human PPIA was amplified using human primer probe set mk_cycloA_2nd (described herein above). Results are presented as percent APOE RNA, relative to the amount of APOE RNA in untreated control cells (% UTC). The half maximal inhibitory concentration (IC50) of each modified oligonucleotide was calculated in GraphPad Prism 10 (GraphPad Software, San Diego, CA) and is also presented in the tables below.

human APOE RNA [3] = assay: Dose-dependent reduction of human APOE RNA in HepG2 cells, electroporation, 20,000 cells per well, average of GAPDH- and PPIA-normalized results (Example 4, Table 12); format: cell-based; conditions: HepG2, 20,000 cells per well; for IC50: approximately 24 hours
Procedure: HepG2 cells plated at a density of 20,000 cells per well were treated by electroporation with various concentrations of modified oligonucleotide as specified in the tables below. […] APOE RNA levels were measured using the human primer probe set RTS3073 (described herein above). APOE RNA levels were normalized to human GAPDH, and human PPIA. Human GAPDH was amplified using human primer probe set RTS104 (described herein above). Human PPIA was amplified using human primer probe set mk_cycloA_2nd (described herein above) The average of the GAPDH-normalized results and the PPIA-normalized results are presented in the table below as percent APOE RNA, relative to the amount of APOE RNA in untreated control cells (% UTC). The half maximal inhibitory concentration (IC50) of each modified oligonucleotide was calculated in GraphPad Prism 10 (GraphPad Software, San Diego, CA) and is also presented in the table below.

human APOE RNA [4] = assay: Activity in APOE C57BL/6NTac-Apoeem7250 knock-in mice, single ICV bolus, 4 weeks (Example 10); format: in vivo; conditions: single ICV bolus 300 μg, 4 weeks post treatment, normalized to mouse Ppia
Procedure, shortened: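 Knock-in mice (2–4 per group) received one 300 μg ICV bolus of oligonucleotide or PBS. After four weeks, human APOE RNA in cortex and spinal cord measured by RT-qPCR (primer probe set RTS3073), normalized to mouse Ppia, expressed as % of PBS controls.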

## ^mCksTksTksGdzGdzTdzGdzAdzAdzTds^mCdsTdsTdsTdsAdsTdsTksAksAdzAk (antisense k[5mC]*kT*kT*dG[ms]dG[ms]dT[ms]dG[ms]dA[ms]dA[ms]dT*d[5mC]*dT*dT*dT*dA*dT*kT*kA*dA[ms]kA) [Compound No. 1785602]
Human APOE RNA [1]
  reduction of human APOE RNA in the cortex: 73%
  APOE RNA (% control) Cortex: 27 % control
  APOE RNA (% control) Spinal Cord: 26 % control
Human APOE RNA [2]; 5 nM, 5 days (Table 13)
  APOE RNA (% UTC): 74 % UTC
Human APOE RNA [2]; 5 nM, 5 days (Table 14)
  APOE RNA (% UTC): 84 % UTC
Human APOE RNA [2]; 13 nM, 5 days (Table 13)
  APOE RNA (% UTC): 60 % UTC
Human APOE RNA [2]; 13 nM, 5 days (Table 14)
  APOE RNA (% UTC): 106 % UTC
Human APOE RNA [2]; 33 nM, 5 days (Table 13)
  APOE RNA (% UTC): 64 % UTC
Human APOE RNA [2]; 33 nM, 5 days (Table 14)
  APOE RNA (% UTC): 83 % UTC
Human APOE RNA [2]; 82 nM, 5 days (Table 13)
  APOE RNA (% UTC): 49 % UTC
Human APOE RNA [2]; 82 nM, 5 days (Table 14)
  APOE RNA (% UTC): 69 % UTC
Human APOE RNA [2]; 205 nM, 5 days (Table 13)
  APOE RNA (% UTC): 40 % UTC
Human APOE RNA [2]; 205 nM, 5 days (Table 14)
  APOE RNA (% UTC): 42 % UTC
Human APOE RNA [2]; 512 nM, 5 days (Table 13)
  APOE RNA (% UTC): 30 % UTC
Human APOE RNA [2]; 512 nM, 5 days (Table 14)
  APOE RNA (% UTC): 32 % UTC
Human APOE RNA [2]; 1,280 nM, 5 days (Table 13)
  APOE RNA (% UTC): 36 % UTC
Human APOE RNA [2]; 1,280 nM, 5 days (Table 14)
  APOE RNA (% UTC): 26 % UTC
Human APOE RNA [2]; 3,200 nM, 5 days (Table 13)
  APOE RNA (% UTC): 32 % UTC
Human APOE RNA [2]; 3,200 nM, 5 days (Table 14)
  APOE RNA (% UTC): 19 % UTC
Human APOE RNA [2]; 8,000 nM, 5 days (Table 13)
  APOE RNA (% UTC): 15 % UTC
Human APOE RNA [2]; 8,000 nM, 5 days (Table 14)
  APOE RNA (% UTC): 10 % UTC
Human APOE RNA [2]; 20,000 nM, 5 days (Table 13)
  APOE RNA (% UTC): 6 % UTC
Human APOE RNA [2]; 20,000 nM, 5 days (Table 14)
  APOE RNA (% UTC): 8 % UTC
Human APOE RNA [2]; 5 days (Table 13)
  IC50: 0.09 µM
Human APOE RNA [2]; 5 days (Table 14)
  IC50: 0.23 µM
Human APOE RNA [3]; 5 nM
  APOE RNA (% UTC): 97 % UTC
Human APOE RNA [3]; 13 nM
  APOE RNA (% UTC): 91 % UTC
Human APOE RNA [3]; 33 nM
  APOE RNA (% UTC): 85 % UTC
Human APOE RNA [3]; 82 nM
  APOE RNA (% UTC): 70 % UTC
Human APOE RNA [3]; 205 nM
  APOE RNA (% UTC): 56 % UTC
Human APOE RNA [3]; 512 nM
  APOE RNA (% UTC): 36 % UTC
Human APOE RNA [3]; 1,280 nM
  APOE RNA (% UTC): 33 % UTC
Human APOE RNA [3]; 3,200 nM
  APOE RNA (% UTC): 8 % UTC
Human APOE RNA [3]; 8,000 nM
  APOE RNA (% UTC): 21 % UTC
Human APOE RNA [3]; 20,000 nM
  APOE RNA (% UTC): 3 % UTC
Human APOE RNA [3]
  IC50: 0.3 µM
Human APOE RNA [4]
  APOE RNA (% control) Cortex: 34 % control
  APOE RNA (% control) Spinal Cord: 33 % control

## 1785599: modified oligonucleotide complementary to human APOE RNA (k[5mC]*kT*kT*dG[ms]dG[ms]dT[ms]dG[ms]dA[ms]dA[ms]dT[ms]d[5mC]*dT*dT*dT*dA*dT*kT*kA*dA[ms]kA; antisense) [compound 1785599]
Human APOE RNA [1]
  APOE RNA (% control) Cortex: 26 % control
  APOE RNA (% control) Spinal Cord: 34 % control
Human APOE RNA [2]; 5 nM, 5 days (Table 14)
  APOE RNA (% UTC): 77 % UTC
Human APOE RNA [2]; 13 nM, 5 days (Table 14)
  APOE RNA (% UTC): 61 % UTC
Human APOE RNA [2]; 33 nM, 5 days (Table 14)
  APOE RNA (% UTC): 72 % UTC
Human APOE RNA [2]; 82 nM, 5 days (Table 14)
  APOE RNA (% UTC): 60 % UTC
Human APOE RNA [2]; 205 nM, 5 days (Table 14)
  APOE RNA (% UTC): 46 % UTC
Human APOE RNA [2]; 512 nM, 5 days (Table 14)
  APOE RNA (% UTC): 20 % UTC
Human APOE RNA [2]; 1,280 nM, 5 days (Table 14)
  APOE RNA (% UTC): 21 % UTC
Human APOE RNA [2]; 3,200 nM, 5 days (Table 14)
  APOE RNA (% UTC): 17 % UTC
Human APOE RNA [2]; 8,000 nM, 5 days (Table 14)
  APOE RNA (% UTC): 12 % UTC
Human APOE RNA [2]; 20,000 nM, 5 days (Table 14)
  APOE RNA (% UTC): 6 % UTC
Human APOE RNA [2]; 5 days (Table 14)
  IC50: 0.1 µM
Human APOE RNA [3]; 5 nM
  APOE RNA (% UTC): 100 % UTC
Human APOE RNA [3]; 13 nM
  APOE RNA (% UTC): 106 % UTC
Human APOE RNA [3]; 33 nM
  APOE RNA (% UTC): 93 % UTC
Human APOE RNA [3]; 82 nM
  APOE RNA (% UTC): 81 % UTC
Human APOE RNA [3]; 205 nM
  APOE RNA (% UTC): 71 % UTC
Human APOE RNA [3]; 512 nM
  APOE RNA (% UTC): 43 % UTC
Human APOE RNA [3]; 1,280 nM
  APOE RNA (% UTC): 32 % UTC
Human APOE RNA [3]; 3,200 nM
  APOE RNA (% UTC): 18 % UTC
Human APOE RNA [3]; 8,000 nM
  APOE RNA (% UTC): 10 % UTC
Human APOE RNA [3]; 20,000 nM
  APOE RNA (% UTC): 15 % UTC
Human APOE RNA [3]
  IC50: 0.51 µM
Human APOE RNA [4]
  APOE RNA (% control) Cortex: 32 % control
  APOE RNA (% control) Spinal Cord: 38 % control

## Aks^mCeoTeoTesGesGksTdsGdzAdzAdzTds^mCdsTdsTdsTdsAdzTksTksAesAe (kA*e[5mC]eTeT*eG*kG*dT*dG[ms]dA[ms]dA[ms]dT*d[5mC]*dT*dT*dT*dA[ms]kT*kT*eA*eA) [Compound No. 1809635]
Human APOE RNA [1]
  reduction of human APOE RNA in the cortex: 74%
  APOE RNA (% control) Cortex: 26 % control
  APOE RNA (% control) Spinal Cord: 15 % control
Human APOE RNA [2]; 5 nM, 5 days (Table 13)
  APOE RNA (% UTC): 67 % UTC
Human APOE RNA [2]; 13 nM, 5 days (Table 13)
  APOE RNA (% UTC): 62 % UTC
Human APOE RNA [2]; 33 nM, 5 days (Table 13)
  APOE RNA (% UTC): 52 % UTC
Human APOE RNA [2]; 82 nM, 5 days (Table 13)
  APOE RNA (% UTC): 43 % UTC
Human APOE RNA [2]; 205 nM, 5 days (Table 13)
  APOE RNA (% UTC): 33 % UTC
Human APOE RNA [2]; 512 nM, 5 days (Table 13)
  APOE RNA (% UTC): 27 % UTC
Human APOE RNA [2]; 1,280 nM, 5 days (Table 13)
  APOE RNA (% UTC): 40 % UTC
Human APOE RNA [2]; 3,200 nM, 5 days (Table 13)
  APOE RNA (% UTC): 28 % UTC
Human APOE RNA [2]; 8,000 nM, 5 days (Table 13)
  APOE RNA (% UTC): 20 % UTC
Human APOE RNA [2]; 20,000 nM, 5 days (Table 13)
  APOE RNA (% UTC): 20 % UTC
Human APOE RNA [2]; 5 days (Table 13)
  IC50: 0.05 µM
